{"source": "ChEMBL document CHEMBL1150977", "about": "“A quantitative analysis of kinase inhibitor selectivity” (Nat Biotechnol, 2008)", "key": {"[1]": {"target": "Serine/threonine-protein kinase Nek6 (Homo sapiens, UniProt Q9HC98)", "sequence (Q9HC98 whole entry)": "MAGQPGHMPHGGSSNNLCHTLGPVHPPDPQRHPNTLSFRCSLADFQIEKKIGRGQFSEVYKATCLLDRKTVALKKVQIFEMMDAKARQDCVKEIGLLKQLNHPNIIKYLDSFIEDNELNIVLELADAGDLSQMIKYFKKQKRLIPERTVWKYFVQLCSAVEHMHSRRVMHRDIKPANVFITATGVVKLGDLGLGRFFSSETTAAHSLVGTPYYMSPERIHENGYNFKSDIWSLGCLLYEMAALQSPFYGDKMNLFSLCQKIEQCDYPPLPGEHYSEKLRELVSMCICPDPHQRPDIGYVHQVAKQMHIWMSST"}, "[2]": {"target": "T1, Dual specificity mitogen-activated protein kinase kinase 3 (Homo sapiens, UniProt P46734)", "T1 sequence (P46734 whole entry)": "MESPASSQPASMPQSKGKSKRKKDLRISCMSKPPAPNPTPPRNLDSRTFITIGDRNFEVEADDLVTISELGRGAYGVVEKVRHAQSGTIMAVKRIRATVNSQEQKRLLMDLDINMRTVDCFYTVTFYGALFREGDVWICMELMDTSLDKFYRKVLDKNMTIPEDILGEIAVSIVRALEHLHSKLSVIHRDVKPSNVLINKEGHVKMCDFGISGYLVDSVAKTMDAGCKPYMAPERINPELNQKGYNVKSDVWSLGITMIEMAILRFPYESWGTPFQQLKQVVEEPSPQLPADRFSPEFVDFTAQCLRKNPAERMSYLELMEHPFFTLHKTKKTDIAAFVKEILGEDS"}, "[3]": {"target": "T2, Serine/threonine-protein kinase Nek9 (Homo sapiens, UniProt Q8TD19)", "T2 sequence (Q8TD19 whole entry)": "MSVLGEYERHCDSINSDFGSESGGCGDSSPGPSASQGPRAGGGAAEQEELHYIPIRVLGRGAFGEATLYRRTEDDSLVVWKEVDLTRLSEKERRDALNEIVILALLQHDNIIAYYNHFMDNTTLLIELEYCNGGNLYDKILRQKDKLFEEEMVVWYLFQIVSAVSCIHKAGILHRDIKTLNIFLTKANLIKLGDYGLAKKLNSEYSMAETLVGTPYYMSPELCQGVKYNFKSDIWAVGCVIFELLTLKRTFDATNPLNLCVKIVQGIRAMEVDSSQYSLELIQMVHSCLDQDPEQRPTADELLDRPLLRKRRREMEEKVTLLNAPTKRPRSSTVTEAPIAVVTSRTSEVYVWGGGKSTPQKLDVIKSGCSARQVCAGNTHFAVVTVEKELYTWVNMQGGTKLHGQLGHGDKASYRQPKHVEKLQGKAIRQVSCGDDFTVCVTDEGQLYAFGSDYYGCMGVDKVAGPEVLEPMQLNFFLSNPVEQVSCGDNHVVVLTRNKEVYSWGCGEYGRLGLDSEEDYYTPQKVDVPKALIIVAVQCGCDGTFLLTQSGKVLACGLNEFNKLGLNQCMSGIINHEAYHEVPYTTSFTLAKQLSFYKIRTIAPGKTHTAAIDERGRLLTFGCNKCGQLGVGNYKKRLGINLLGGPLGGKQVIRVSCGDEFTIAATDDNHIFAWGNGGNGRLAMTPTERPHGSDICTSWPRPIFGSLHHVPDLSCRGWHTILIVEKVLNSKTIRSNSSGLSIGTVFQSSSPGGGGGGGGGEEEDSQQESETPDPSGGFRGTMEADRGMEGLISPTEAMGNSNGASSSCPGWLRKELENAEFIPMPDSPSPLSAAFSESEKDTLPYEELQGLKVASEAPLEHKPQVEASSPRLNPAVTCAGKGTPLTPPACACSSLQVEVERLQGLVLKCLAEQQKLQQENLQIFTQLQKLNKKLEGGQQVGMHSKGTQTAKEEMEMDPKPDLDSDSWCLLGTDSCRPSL"}, "Ephrin type-A receptor 1": {"target": "T3, Ephrin type-A receptor 1 (Homo sapiens, UniProt P21709)", "T3 sequence (P21709 whole entry)": "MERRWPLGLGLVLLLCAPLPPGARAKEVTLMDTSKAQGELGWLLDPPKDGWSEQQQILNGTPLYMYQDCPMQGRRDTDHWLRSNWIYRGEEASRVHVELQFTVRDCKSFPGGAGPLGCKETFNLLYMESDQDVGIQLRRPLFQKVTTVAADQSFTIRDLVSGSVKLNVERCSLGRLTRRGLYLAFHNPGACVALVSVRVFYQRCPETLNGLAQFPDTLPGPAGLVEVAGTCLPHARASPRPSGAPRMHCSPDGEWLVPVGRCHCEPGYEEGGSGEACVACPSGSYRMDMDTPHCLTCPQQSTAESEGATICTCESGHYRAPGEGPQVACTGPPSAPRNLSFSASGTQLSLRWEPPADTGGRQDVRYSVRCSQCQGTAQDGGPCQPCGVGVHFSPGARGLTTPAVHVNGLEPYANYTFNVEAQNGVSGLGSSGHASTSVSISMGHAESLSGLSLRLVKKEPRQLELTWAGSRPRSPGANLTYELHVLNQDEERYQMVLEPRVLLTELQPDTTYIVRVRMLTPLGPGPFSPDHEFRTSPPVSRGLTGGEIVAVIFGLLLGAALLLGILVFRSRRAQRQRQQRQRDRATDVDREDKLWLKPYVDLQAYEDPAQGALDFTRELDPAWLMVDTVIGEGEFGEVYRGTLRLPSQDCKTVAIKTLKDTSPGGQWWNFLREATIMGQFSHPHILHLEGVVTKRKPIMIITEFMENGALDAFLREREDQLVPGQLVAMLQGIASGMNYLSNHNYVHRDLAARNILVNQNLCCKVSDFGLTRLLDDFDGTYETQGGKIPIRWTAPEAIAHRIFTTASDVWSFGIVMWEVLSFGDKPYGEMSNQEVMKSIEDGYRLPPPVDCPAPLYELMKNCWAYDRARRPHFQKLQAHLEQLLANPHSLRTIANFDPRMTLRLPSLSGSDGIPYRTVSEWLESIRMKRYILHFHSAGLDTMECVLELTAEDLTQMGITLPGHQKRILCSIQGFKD"}, "[4]": {"target": "Non-receptor tyrosine-protein kinase TYK2 (Homo sapiens, UniProt P29597)", "sequence (P29597 whole entry)": "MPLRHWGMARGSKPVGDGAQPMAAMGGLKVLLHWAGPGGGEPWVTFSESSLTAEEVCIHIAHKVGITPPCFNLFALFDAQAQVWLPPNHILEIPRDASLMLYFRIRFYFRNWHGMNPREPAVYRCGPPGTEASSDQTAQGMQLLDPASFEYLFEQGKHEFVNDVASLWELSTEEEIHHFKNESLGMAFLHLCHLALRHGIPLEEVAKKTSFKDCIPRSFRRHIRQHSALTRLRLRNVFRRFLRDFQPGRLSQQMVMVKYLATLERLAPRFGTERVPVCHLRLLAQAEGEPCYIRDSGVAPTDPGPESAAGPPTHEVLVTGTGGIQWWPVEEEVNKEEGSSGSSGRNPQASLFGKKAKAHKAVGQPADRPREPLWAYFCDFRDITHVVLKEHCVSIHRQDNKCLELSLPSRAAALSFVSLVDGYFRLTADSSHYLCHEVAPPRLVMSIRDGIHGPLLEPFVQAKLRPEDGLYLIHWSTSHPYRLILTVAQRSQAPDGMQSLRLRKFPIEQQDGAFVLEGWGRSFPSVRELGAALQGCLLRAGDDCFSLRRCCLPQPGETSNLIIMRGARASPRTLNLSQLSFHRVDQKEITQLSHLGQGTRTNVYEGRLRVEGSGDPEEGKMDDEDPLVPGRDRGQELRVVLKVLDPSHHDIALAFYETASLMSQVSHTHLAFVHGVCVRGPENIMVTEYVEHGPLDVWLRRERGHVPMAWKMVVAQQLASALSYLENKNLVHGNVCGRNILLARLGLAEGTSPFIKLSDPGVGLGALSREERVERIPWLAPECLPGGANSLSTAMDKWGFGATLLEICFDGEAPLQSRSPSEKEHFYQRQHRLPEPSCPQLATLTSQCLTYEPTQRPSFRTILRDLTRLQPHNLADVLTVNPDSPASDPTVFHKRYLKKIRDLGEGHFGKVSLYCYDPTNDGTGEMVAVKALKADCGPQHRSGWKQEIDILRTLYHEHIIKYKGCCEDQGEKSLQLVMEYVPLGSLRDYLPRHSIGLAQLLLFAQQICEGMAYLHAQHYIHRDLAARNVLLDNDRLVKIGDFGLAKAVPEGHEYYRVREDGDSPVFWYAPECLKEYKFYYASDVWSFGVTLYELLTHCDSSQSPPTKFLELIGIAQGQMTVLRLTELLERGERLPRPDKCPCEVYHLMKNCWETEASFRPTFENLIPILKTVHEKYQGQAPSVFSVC"}, "[5]": {"target": "Serine/threonine-protein kinase 38-like (Homo sapiens, UniProt Q9Y2H1)", "sequence (Q9Y2H1 whole entry)": "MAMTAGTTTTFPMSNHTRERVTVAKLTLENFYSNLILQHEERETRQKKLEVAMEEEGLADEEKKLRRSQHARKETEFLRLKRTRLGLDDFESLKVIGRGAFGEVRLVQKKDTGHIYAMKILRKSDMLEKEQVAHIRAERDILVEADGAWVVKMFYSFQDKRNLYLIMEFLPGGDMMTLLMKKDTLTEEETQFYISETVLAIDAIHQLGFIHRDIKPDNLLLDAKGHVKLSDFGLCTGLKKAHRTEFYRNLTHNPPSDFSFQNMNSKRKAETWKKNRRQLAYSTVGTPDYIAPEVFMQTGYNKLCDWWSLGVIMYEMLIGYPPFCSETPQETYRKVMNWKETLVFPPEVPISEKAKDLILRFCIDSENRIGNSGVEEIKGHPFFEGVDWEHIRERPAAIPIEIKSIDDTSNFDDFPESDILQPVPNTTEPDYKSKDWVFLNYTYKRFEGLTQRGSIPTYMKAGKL"}, "[6]": {"target": "Glycogen synthase kinase-3 alpha (Homo sapiens, UniProt P49840)", "sequence (P49840 whole entry)": "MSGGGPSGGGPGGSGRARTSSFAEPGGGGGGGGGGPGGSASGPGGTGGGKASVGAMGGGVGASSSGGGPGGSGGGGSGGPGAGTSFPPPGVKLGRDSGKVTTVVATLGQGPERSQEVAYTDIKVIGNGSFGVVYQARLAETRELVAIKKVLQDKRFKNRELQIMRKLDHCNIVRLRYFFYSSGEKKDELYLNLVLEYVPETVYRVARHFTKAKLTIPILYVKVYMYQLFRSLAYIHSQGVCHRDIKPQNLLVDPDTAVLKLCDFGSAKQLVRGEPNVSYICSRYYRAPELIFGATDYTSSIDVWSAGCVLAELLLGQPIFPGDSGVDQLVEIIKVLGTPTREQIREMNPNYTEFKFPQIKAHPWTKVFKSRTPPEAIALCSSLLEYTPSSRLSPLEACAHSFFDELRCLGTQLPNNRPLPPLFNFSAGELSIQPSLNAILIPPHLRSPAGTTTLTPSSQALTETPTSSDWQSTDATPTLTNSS"}, "Insulin receptor": {"target": "Insulin receptor (Homo sapiens, UniProt P06213)", "sequence (P06213 28-758 limits assumed)": "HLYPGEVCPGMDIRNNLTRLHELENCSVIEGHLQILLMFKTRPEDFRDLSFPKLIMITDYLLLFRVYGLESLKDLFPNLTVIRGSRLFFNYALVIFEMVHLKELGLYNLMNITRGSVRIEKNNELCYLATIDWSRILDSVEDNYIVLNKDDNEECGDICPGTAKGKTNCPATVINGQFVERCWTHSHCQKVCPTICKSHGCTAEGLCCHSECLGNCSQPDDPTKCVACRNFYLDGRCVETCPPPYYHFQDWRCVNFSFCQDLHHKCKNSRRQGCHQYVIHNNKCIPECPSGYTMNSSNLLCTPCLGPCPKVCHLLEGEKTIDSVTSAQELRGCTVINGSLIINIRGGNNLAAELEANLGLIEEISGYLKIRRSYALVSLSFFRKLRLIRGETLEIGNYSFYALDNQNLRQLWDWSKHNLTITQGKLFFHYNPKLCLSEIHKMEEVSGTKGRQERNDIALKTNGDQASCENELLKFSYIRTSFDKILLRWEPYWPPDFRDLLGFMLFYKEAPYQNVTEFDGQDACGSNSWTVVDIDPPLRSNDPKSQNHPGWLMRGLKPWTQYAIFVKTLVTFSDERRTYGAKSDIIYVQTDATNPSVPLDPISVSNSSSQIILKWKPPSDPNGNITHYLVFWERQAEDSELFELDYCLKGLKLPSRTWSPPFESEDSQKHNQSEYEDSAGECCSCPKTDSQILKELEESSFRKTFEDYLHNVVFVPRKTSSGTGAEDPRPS", "sequence (P06213 763-1382 limits assumed)": "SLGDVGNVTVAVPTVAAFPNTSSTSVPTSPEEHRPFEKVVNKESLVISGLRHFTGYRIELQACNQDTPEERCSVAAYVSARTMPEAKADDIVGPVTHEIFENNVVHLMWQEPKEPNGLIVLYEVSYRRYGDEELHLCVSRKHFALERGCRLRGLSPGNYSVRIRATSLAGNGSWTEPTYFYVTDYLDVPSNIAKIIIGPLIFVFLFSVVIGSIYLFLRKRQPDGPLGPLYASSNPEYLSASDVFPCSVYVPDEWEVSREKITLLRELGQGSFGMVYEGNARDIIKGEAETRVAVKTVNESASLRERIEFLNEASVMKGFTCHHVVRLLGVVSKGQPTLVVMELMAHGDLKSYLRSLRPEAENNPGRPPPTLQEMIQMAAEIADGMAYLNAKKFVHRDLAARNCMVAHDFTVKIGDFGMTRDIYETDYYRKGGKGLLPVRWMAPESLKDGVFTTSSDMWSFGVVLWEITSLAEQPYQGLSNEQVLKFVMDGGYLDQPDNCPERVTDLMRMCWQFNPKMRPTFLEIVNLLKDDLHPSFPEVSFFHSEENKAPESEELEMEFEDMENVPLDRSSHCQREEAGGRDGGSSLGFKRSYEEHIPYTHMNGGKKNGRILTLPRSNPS"}, "[7]": {"target": "Dual specificity protein kinase CLK3 (Homo sapiens, UniProt P49761)", "sequence (P49761 whole entry)": "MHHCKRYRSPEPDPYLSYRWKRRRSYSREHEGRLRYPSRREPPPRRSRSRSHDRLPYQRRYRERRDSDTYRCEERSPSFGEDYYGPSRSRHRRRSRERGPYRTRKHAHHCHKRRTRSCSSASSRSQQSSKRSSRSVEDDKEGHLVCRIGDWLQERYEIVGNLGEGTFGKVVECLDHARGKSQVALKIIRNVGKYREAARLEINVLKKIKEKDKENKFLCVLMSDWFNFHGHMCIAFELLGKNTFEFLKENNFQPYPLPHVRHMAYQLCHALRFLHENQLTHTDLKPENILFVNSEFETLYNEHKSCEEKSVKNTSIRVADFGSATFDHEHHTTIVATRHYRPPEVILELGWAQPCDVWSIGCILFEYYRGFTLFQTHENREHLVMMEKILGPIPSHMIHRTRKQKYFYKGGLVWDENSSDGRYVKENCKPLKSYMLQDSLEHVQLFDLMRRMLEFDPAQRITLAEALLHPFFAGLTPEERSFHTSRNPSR"}}}
{"smiles": "CCN1CCN(Cc2ccc(NC(=O)Nc3ccc(Oc4cc(NC)ncn4)cc3)cc2C(F)(F)F)CC1", "note": "[AST-487]", "values": [{"measurement": "Kd", "setting": "[1]", "value": "> 10", "unit": "µM"}, {"measurement": "Kd", "setting": "[2]", "value": "> 10", "unit": "µM"}, {"measurement": "Kd", "setting": "[3]", "value": "> 10", "unit": "µM"}, {"measurement": "Kd", "setting": "Ephrin type-A receptor 1", "value": "> 10", "unit": "µM"}, {"measurement": "Kd", "setting": "[4]", "value": 2.1, "unit": "µM"}, {"measurement": "Kd", "setting": "[5]", "value": "> 10", "unit": "µM"}, {"measurement": "Kd", "setting": "[6]", "value": "> 10", "unit": "µM"}, {"measurement": "Kd", "setting": "Insulin receptor", "value": "> 10", "unit": "µM"}, {"measurement": "Kd", "setting": "[7]", "value": "> 10", "unit": "µM"}]}
{"smiles": "COCC(=O)NC/C=C/c1ccc2ncnc(Nc3ccc(Oc4ccc(C)nc4)c(C)c3)c2c1", "note": "[CP-724714]", "values": [{"measurement": "Kd", "setting": "[1]", "value": "> 10", "unit": "µM"}, {"measurement": "Kd", "setting": "[2]", "value": "> 10", "unit": "µM"}, {"measurement": "Kd", "setting": "[3]", "value": "> 10", "unit": "µM"}, {"measurement": "Kd", "setting": "Ephrin type-A receptor 1", "value": "> 10", "unit": "µM"}, {"measurement": "Kd", "setting": "[4]", "value": "> 10", "unit": "µM"}, {"measurement": "Kd", "setting": "[5]", "value": "> 10", "unit": "µM"}, {"measurement": "Kd", "setting": "[6]", "value": "> 10", "unit": "µM"}, {"measurement": "Kd", "setting": "Insulin receptor", "value": "> 10", "unit": "µM"}, {"measurement": "Kd", "setting": "[7]", "value": "> 10", "unit": "µM"}]}
{"smiles": "Nc1nc(Nc2ccc(S(N)(=O)=O)cc2)nn1C(=O)c1c(F)cccc1F", "note": "[JNJ-7706621]", "values": [{"measurement": "Kd", "setting": "[1]", "value": "> 10", "unit": "µM"}, {"measurement": "Kd", "setting": "[2]", "value": 1.5, "unit": "µM"}, {"measurement": "Kd", "setting": "[3]", "value": "> 10", "unit": "µM"}, {"measurement": "Kd", "setting": "Ephrin type-A receptor 1", "value": "> 10", "unit": "µM"}, {"measurement": "Kd", "setting": "[4]", "value": 0.032, "unit": "µM"}, {"measurement": "Kd", "setting": "[5]", "value": "> 10", "unit": "µM"}, {"measurement": "Kd", "setting": "[6]", "value": 0.16, "unit": "µM"}, {"measurement": "Kd", "setting": "Insulin receptor", "value": "> 10", "unit": "µM"}, {"measurement": "Kd", "setting": "[7]", "value": 0.31, "unit": "µM"}]}
{"smiles": "CCOc1cc2ncc(C#N)c(Nc3ccc(F)c(Cl)c3)c2cc1NC(=O)/C=C/CN(C)C", "note": "[PELITINIB]", "values": [{"measurement": "Kd", "setting": "[1]", "value": "> 10", "unit": "µM"}, {"measurement": "Kd", "setting": "[2]", "value": "> 10", "unit": "µM"}, {"measurement": "Kd", "setting": "[3]", "value": "> 10", "unit": "µM"}, {"measurement": "Kd", "setting": "Ephrin type-A receptor 1", "value": "> 10", "unit": "µM"}, {"measurement": "Kd", "setting": "[4]", "value": "> 10", "unit": "µM"}, {"measurement": "Kd", "setting": "[5]", "value": "> 10", "unit": "µM"}, {"measurement": "Kd", "setting": "[6]", "value": "> 10", "unit": "µM"}, {"measurement": "Kd", "setting": "Insulin receptor", "value": "> 10", "unit": "µM"}, {"measurement": "Kd", "setting": "[7]", "value": 5.6, "unit": "µM"}]}
{"smiles": "Oc1ccc(-c2nc(-c3ccncc3)c(-c3ccc(F)cc3)[nH]2)cc1", "note": "[SB-202190]", "values": [{"measurement": "Kd", "setting": "[1]", "value": "> 10", "unit": "µM"}, {"measurement": "Kd", "setting": "[2]", "value": "> 10", "unit": "µM"}, {"measurement": "Kd", "setting": "[3]", "value": "> 10", "unit": "µM"}, {"measurement": "Kd", "setting": "Ephrin type-A receptor 1", "value": "> 10", "unit": "µM"}, {"measurement": "Kd", "setting": "[4]", "value": "> 10", "unit": "µM"}, {"measurement": "Kd", "setting": "[5]", "value": "> 10", "unit": "µM"}, {"measurement": "Kd", "setting": "[6]", "value": "> 10", "unit": "µM"}, {"measurement": "Kd", "setting": "Insulin receptor", "value": "> 10", "unit": "µM"}, {"measurement": "Kd", "setting": "[7]", "value": "> 10", "unit": "µM"}]}
{"smiles": "NC(=O)c1ccc(-c2nc(-c3ccc4c(c3)OCO4)c(-c3ccccn3)[nH]2)cc1", "note": "[SB-431542]", "values": [{"measurement": "Kd", "setting": "[1]", "value": "> 10", "unit": "µM"}, {"measurement": "Kd", "setting": "[2]", "value": "> 10", "unit": "µM"}, {"measurement": "Kd", "setting": "[3]", "value": "> 10", "unit": "µM"}, {"measurement": "Kd", "setting": "Ephrin type-A receptor 1", "value": "> 10", "unit": "µM"}, {"measurement": "Kd", "setting": "[4]", "value": "> 10", "unit": "µM"}, {"measurement": "Kd", "setting": "[5]", "value": "> 10", "unit": "µM"}, {"measurement": "Kd", "setting": "[6]", "value": "> 10", "unit": "µM"}, {"measurement": "Kd", "setting": "Insulin receptor", "value": "> 10", "unit": "µM"}, {"measurement": "Kd", "setting": "[7]", "value": "> 10", "unit": "µM"}]}
